Series [1] concerns E. coli transformed with IPTG-inducible antisense clones (AS-rplW, AS-rplLrplJ, AS-elaD, AS-visC, AS-yohH, AS-atpB/E). The experiment in a line: Cell-based assay: antibiotic sensitivity of E. coli antisense clones pretreated with IPTG (Example 9). The source says: The effectiveness of the above cell-based assay was validated using constructs expressing antisense RNA to the proliferation required E. coli genes rplL, rplJ, and rplW encoding ribosomal proteins L7/L12, L10 and L23 respectively. These proteins are part of the protein synthesis apparatus of the cell and as such are required for proliferation. These constructs were used to test the effect of antisense expression on cell sensitivity to antibiotics known to bind to the ribosome and thereby inhibit protein synthesis. Constructs expressing antisense RNA to several other genes (elaD, visC, yohH, and atpE/B), the products of which are not involved in protein synthesis were used for comparison.
First, pLEX5BA (Krause et al., J. Mol. Biol. 274: 365 (1997), the disclosure of which is incorporated herein by reference in its entirety) expression vectors containing antisense constructs to either rplW or to elaD were introduced into separate E. coli cell populations. Vector introduction is a technique well known to those of ordinary skill in the art. The expression vectors of this example contain IPTG inducible promoters that drive the expression of the antisense RNA in the presence of the inducer. However, those skilled in the art will appreciate that other inducible promoters may also be used. Suitable expression vectors are also well known in the art. The E. coli antisense clones to genes encoding ribosomal proteins L7/L12, L10 and L23 were used to test the effect of antisense expression on cell sensitivity to the antibiotics known to bind to these proteins. […]
The cell populations were exposed to a range of IPTG concentrations in liquid medium to obtain the growth inhibitory dose curve for each clone (FIG. 1). First, seed cultures were grown to a particular turbidity that is measured by the optical density (OD) of the growth solution. […] The cells were grown for up to 15 hours and the extent of growth was determined by measuring the optical density of the cultures at 600 nm. […]

Series [2] has as its system Bacterial cells expressing antisense nucleic acid complementary to rplL and rplJ (50S ribosomal subunit proteins). Put plainly: microbe, parasite or virus in culture. Type of series: cell-based, E. coli. The following applies: for IC50: Escherichia coli; for Fold Increase in Sensitivity: IC50 −IPTG versus +IPTG (400 μM); for Sensitivity Increased?: significant decrease in IC50 in the presence of inducer IPTG. On the procedure: Two-fold dilution series of antibiotics with a known mechanism of action are generated in the culture media selected for further assay development that has been supplemented with the antibiotic used to maintain the construct. A panel of test antibiotics known to act on different pathways is tested side by side with three to four wells being used to evaluate the effect of a test antibiotic on cell growth at each concentration. Equal volumes of test antibiotic and cells are added to the wells of a 384 well microtiter plate and mixed. Cells are prepared as described above using the media selected for assay development supplemented with the antibiotic required to maintain the antisense construct and are diluted 1:100 in identical media immediately prior to addition to the microtiter plate wells. For a control, cells are also added to several wells that contain the solvent used to dissolve the antibiotics but no antibiotic. Cell growth is monitored continuously by incubation at 37° C. in a microtiter plate reader monitoring the OD600 of the wells over an 18-hour period. […] A plot of percent inhibition against log[antibiotic concentration] allows extrapolation of an IC50 value for each antibiotic.
The culture media selected for use in the assay is supplemented with inducer at concentrations shown to inhibit cell growth by 50% and 80% as described above and the antibiotic used to maintain the construct. Two fold dilution series of the panel of test antibiotics used above are generated in each of these media. Several antibiotics are tested side by side with three to four wells being used to evaluate the effects of an antibiotic on cell growth at each concentration, in each media. Equal volumes of test antibiotic and cells are added to the wells of a 384 well microtiter plate and mixed. Cells are prepared as described above using the media selected for use in the assay supplemented with the antibiotic required to maintain the antisense construct. […] Immediately prior to addition to the microtiter plate wells, the cultures are adjusted to an appropriate OD600 (typically 0.002) by dilution into warm (37° C.) sterile media supplemented with identical concentrations of the inducer and antibiotic used to maintain the antisense construct. For a control, cells are also added to several wells that contain solvent used to dissolve test antibiotics but which contain no antibiotic. Cell growth is monitored continuously by incubation at 37° C. in a microtiter plate reader monitoring the OD600 of the wells over an 18-hour period. […] A plot of percent inhibition against log[antibiotic concentration] allows extrapolation of an IC50 value for each antibiotic.
Antibiotics of various chemical classes and modes of action were purchased from Sigma Chemicals (St. Louis, Mo.). Stock solutions were prepared by dissolving each antibiotic in an appropriate aqueous solution based on information provided by the manufacturer. The final working solution of each antibiotic contained no more than 0.2% (w/v) of any organic solvent. To determine their potency against a bacterial strain engineered for expression of an antisense complementary to a proliferation-required gene encoding 50S ribosomal protein, each antibiotic was serially diluted two or three fold in growth medium supplemented with the appropriate antibiotic for maintenance of the anti-sense construct. At least ten dilutions were prepared for each antibiotic. 25 μL aliquots of each dilution were transferred to discrete wells of a 384-well microplate (the assay plate) using a multi-channel pipette. Quadruplicate wells were used for each dilution of an antibiotic under each treatment condition (plus and minus inducer). Each assay plate contained twenty wells for cell growth controls (growth media replacing antibiotic), ten wells for each treatment (plus and minus inducer, in this example IPTG).

In a further series the test system is E. coli. Put plainly: Inhibition of E. coli proliferation after IPTG induction of antisense clones (growth curves, dilution spotting, score). The class given is cell-based, Escherichia coli. The following applies: IPTG induction (1 mM). On the procedure:
To study the effects of transcriptional induction in liquid medium, growth curves were carried out by back diluting cultures 1:200 into fresh media with or without 1 mM IPTG and measuring the OD450 every 30 minutes (min). To study the effects of transcriptional induction on solid medium, 10^2, 10^3, 10^4, 10^5, 10^6, 10^7 and 10^8 fold dilutions of overnight cultures were prepared. Aliquots of from 0.5 to 3 μl of these dilutions were spotted on selective agar plates with or without 1 mM IPTG. After overnight incubation, the plates were compared to assess the sensitivity of the clones to IPTG.
Of the numerous clones tested, some clones were identified as containing a sequence that inhibited E. coli growth after IPTG induction. […]
Molecule No. EcXA190, encoding a portion of the b3052 gene of Escherichia coli, was either transformed directly into Enterobacter cloacae, Salmonella typhimurium and/or Klebsiella pneumoniae or subcloned into an expression vector functional in these species and the subclones transformed into these organisms. […] After growth in liquid culture, cells were plated at various serial dilutions and a score determined by calculating the log difference in growth for INDUCED vs. UNINDUCED antisense RNA expression as determined by the maximum 10 fold dilution at which a colony was observed. […]

The text below walks through data of patent US20020022718A1, “Genes identified as required for proliferation of E. coli” (priority 1999, published 2002).

In brackets after ≈: the same amount, converted by molar mass. Read-outs that look alike come from different tables or passages of the source.

As for `CCn1cc(C(=O)O)c(=O)c2ccc(C)nc21` [Nalidixic acid], the sensitivity to antibiotic result in series [1] (cells/clone expressing antisense to rplL and rplJ (L7/L12, L10), IPTG induced) is listed as “does not show increased sensitivity”. In addition, the results for the IC50 in series [2] (read-out: IC50 (+IPTG)) and in series [2] (read-out: IC50 (−IPTG)) were 6.03 µg/mL (≈ 25.9 µM) and 6.97 µg/mL (≈ 30 µM), respectively. Further, the “Fold Increase in Sensitivity” value in series [2] was determined as 1. Also, the “Sensitivity Increased?” value in series [2] is “No”.
On to `CC[C@H]1OC(=O)[C@H](C)[C@@H](O[C@H]2C[C@@](C)(OC)[C@@H](O)[C@H](C)O2)[C@H](C)[C@@H](O[C@@H]2O[C@H](C)C[C@H](N(C)C)[C@H]2O)[C@](C)(O)C[C@@H](C)C(=O)[C@H](C)[C@@H](O)[C@]1(C)O` [Erythromycin], for which the sensitivity to antibiotic result in series [1] (initial experiments, clones with antisense to non-protein synthesis genes elaD, atpB/E and visC) is recorded as “do not”; in series [1] (initial experiments, clones with antisense to protein synthesis genes (L7/L12 & L10, L7/L12 alone, L22, L18, rRNA, Elongation Factor G)), “increased sensitivity”. The IC50 in series [2] (read-out: IC50 (+IPTG)) was determined as 0.187 µg/mL (≈ 0.255 µM); in series [2] (read-out: IC50 (−IPTG)), 7.47 µg/mL (≈ 10.2 µM). In addition, the “Fold Increase in Sensitivity” value in series [2] came out at 40. The “Sensitivity Increased?” value in series [2] is on record as “Yes”.

B1: EcXA134: antisense clone insert to E. coli sspA (nucleic acid, listed as Escherichia coli)
antisense: TGTTCGATCTCGAAACTTACACCTTTCTCAGCCAGCACAATGCGGACCTGATGGCTATAGATGTCAGTAGGACCGGAAAACAGCGTCATTACCCGAACGTTTGTTGGC
For the molecule B1, in the series on E. coli, the “effect of antisense expression on E. coli growth/proliferation” value was “reduction in cell growth”.

B2: EcXA161: antisense clone insert to E. coli sbcD (nucleic acid, listed as Escherichia coli)
antisense: GAAACTCAGTGGAATGGGGGAGCCGCAATAGCGAACATGTTCCATGCCGCCAATAATCTGTGCGCGGTGAATATGCCCGAGCGCGATGTAGTCGGCTGGTGGAAAGTTTTGTGCCGGAAACGCGTCCAGCGTGCCAATATAAATGTCACGCACGGCGTCACTTTTACTGGCCCCCACGGTCGTTAAATGTCCCGTGGCGATGATGGGCAGAGGCTGATCGCCGCGCAGTTTGCAGGCATCGGCATAGTGT
On to B2, for which the “effect of antisense expression on E. coli growth/proliferation” value in the series with E. coli is recorded as “reduction in cell growth”.

By IC50 is commonly meant the point on the concentration scale where inhibition reaches its midpoint.
